{"source": "patent US6821541B2", "about": "“Anaerobic tea steeper and method of use” (priority 2002, dated 2004)", "origin": "cited, not measured here", "key": {"[1]": {"conditions": "for stability in tea drinks: room temperature"}, "[2]": {"test_system": "canine lymphoma (lymphosarcoma)", "conditions": "dogs with lymphoma"}}, "note": "Like-named read-outs stand apart in the source and are kept apart here."}
{"compound": "Oc1cc(O)c2c(c1)O[C@H](c1ccc(O)c(O)c1)[C@H](O)C2", "note": "[EC, (−) epicatechin]", "values": [{"measurement": "stability in tea drinks", "setting": "[1]", "result": "generally stable"}]}
{"compound": "(−) epigallocatechin gallate [EGCG]", "values": [{"measurement": "stability in aqueous solution", "setting": "[1]; 4° C., 24 hours, pH 3-9", "result": "stable"}, {"measurement": "level remaining after degradation", "setting": "[1]; 24 hours at 50° C. and pH 5", "result": "below 80 % of the initial concentration"}, {"measurement": "stability in tea drinks", "setting": "[1]", "result": "generally stable"}]}
{"compound": "C[C@]12C=CC(=O)C=C1CC[C@@H]1[C@@H]2C(=O)C[C@@]2(C)[C@H]1CC[C@]2(O)C(=O)CO", "note": "[Prednisone]", "values": [{"measurement": "duration of remission", "setting": "[2]; guideline values", "result": "about 30 days"}]}
{"compound": "O=C(O[C@@H]1Cc2c(O)cc(O)cc2O[C@@H]1c1ccc(O)c(O)c1)c1cc(O)c(O)c(O)c1", "note": "[ECG, (−) epicatechin gallate]", "values": [{"measurement": "stability in tea drinks", "setting": "[1]", "result": "generally stable"}]}
{"compound": "COc1cccc2c1C(=O)c1c(O)c3c(c(O)c1C2=O)C[C@@](O)(C(=O)CO)C[C@@H]3O[C@H]1C[C@H](N)[C@H](O)[C@H](C)O1", "note": "[Doxorubicin]", "values": [{"measurement": "duration of remission", "setting": "[2]; drug alone, guideline value", "result": "18-29 weeks"}]}
